Measurements from BindingDB's records for doi:10.1124/mol.51.1.109 (Max-Planck Institute For Experimental Medicine, 1997).

Tests used:
P2X purinoceptor 4 [1] = target: T1, P2X purinoceptor 4 (Rattus norvegicus, UniProt P51577)
T1 sequence (P51577 whole entry): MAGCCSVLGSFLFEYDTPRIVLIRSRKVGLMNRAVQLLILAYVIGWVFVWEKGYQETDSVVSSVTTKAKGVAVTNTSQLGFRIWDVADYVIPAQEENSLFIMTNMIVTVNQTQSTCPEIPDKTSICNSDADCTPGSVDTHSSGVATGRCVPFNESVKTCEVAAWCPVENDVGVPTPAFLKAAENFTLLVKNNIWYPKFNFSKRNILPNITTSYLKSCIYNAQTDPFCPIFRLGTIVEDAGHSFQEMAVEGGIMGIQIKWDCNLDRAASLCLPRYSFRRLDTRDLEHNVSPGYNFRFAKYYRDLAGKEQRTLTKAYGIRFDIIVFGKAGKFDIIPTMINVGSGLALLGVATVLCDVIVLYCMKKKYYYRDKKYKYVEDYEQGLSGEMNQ

P2X purinoceptor 4 [2] = target: T2, P2X purinoceptor 4 (Homo sapiens, UniProt Q99571)
T2 sequence (Q99571 whole entry): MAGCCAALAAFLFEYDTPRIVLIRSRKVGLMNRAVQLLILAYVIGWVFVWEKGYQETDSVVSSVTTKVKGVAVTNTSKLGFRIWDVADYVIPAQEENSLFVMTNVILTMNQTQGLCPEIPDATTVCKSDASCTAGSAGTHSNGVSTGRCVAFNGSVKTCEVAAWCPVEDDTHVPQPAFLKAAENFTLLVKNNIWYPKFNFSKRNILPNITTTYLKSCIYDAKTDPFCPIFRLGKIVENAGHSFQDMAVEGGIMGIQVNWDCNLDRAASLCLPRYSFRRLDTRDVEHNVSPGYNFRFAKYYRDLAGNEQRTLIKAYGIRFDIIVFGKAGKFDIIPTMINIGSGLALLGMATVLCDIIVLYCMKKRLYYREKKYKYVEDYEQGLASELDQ

| Compound | Ki (P2X purinoceptor 4 [1]) | Ki (P2X purinoceptor 4 [2]) |
| --- | --- | --- |
| Nc1c(S(=O)(=O)O)cc(Nc2ccc(Nc3nc(Cl)nc(Nc4cccc(S(=O)(=O)O)c4)n3)c(S(=O)(=O)O)c2)c2c1C(=O)c1ccccc1C2=O | 46.2 nM | – |
| Nc1c(S(=O)(=O)O)cc(Nc2ccc(Nc3nc(Cl)nc(Nc4ccccc4S(=O)(=O)O)n3)c(S(=O)(=O)O)c2)c2c1C(=O)c1ccccc1C2=O | 128 nM | – |
| Cc1nc(/N=N/c2ccc(S(=O)(=O)O)cc2S(=O)(=O)O)c(COP(=O)(O)O)c(C=O)c1O | 500 nM | – |
| O=S1(=O)OC(c2cc(Br)c(O)c(Br)c2)(c2cc(Br)c(O)c(Br)c2)c2ccccc21 [NSC_8272] | 301 nM | 78.3 nM |
| Cc1ccc(C(=O)Nc2ccc(S(=O)(=O)O)c3cc(S(=O)(=O)O)cc(S(=O)(=O)O)c23)cc1NC(=O)c1cccc(NC(=O)Nc2cccc(C(=O)Nc3cc(C(=O)Nc4ccc(S(=O)(=O)O)c5cc(S(=O)(=O)O)cc(S(=O)(=O)O)c45)ccc3C)c2)c1 [suramin] | 500 nM | 178 nM |
